Target: Histone deacetylase 1 (Homo sapiens, UniProt Q13547)
Assay: Inhibition of HDAC1 (unknown origin) using 6-carboxyfluorescein peptide as substrate preincubated with compound followed by substrate addition by electrophoretic mobility shift assay

Chain of Histone deacetylase 1 (Q13547 whole entry): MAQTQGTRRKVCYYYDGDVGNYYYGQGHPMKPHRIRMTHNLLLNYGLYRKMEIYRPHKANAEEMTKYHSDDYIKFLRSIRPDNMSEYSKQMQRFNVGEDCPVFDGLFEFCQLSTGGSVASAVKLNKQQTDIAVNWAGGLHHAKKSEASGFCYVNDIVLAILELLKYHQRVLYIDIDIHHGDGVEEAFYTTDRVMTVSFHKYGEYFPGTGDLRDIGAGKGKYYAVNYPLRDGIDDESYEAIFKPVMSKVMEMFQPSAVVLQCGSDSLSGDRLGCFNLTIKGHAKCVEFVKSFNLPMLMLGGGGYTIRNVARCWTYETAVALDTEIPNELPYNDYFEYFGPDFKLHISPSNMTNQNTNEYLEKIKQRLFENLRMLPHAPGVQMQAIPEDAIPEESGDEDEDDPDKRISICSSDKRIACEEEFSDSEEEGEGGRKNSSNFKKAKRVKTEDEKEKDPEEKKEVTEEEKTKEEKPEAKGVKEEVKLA

**Q.** How did the IC50 turn out when `C=CC(=O)N1CCC(OC(=O)NCc2ccc(C(=O)Nc3ccccc3N)cc2)CC1` was run?
**A.** 685 nM

Source: BindingDB's records for doi:10.1021/acs.jmedchem.3c01236 (University of Toronto Mississauga, 2023)
